In brackets after ≈: the same amount, converted by molar mass. Numbered stars: 1 amine (or outer) side, 2 acyl side, 3 side chain; on linkers, the order of the positions; unused ones are H or OH. Bridge positions count the residues as written; N and C are the ends. Square brackets hold non-standard residues; d marks the D form. Peptide text beside a SMILES is read from it. * marks the point of attachment. X3 = CCCCC[C@H](CC(=O)[*:1])O[*:2]; Myristoyl = CCCCCCCCCCCCCC(=O)*; Orn = NCCC[C@H](N)C(=O)O; Dab = NCC[C@H](N)C(=O)O; Dap = NC[C@H](N)C(=O)O
Experiments:
Format in all cases: cell-based
[1] = test system: Acinetobacter baumannii 1104008; assay: microbe, parasite or virus in culture; settings: Table S11; LB broth, 37 °C, 16 h, n = 2
Procedure: (§1) All MIC assays were performed two independent times (n = 2) in 96‐well plates using a broth micro‐dilution method. The lowest concentration of that inhibited visible microbial growth was recorded as the MIC value.
(§2) For most of bacterial strains, overnight cultures were diluted 5000‐fold in LB broth. For E. faecium and S. aureus, overnight cultures were diluted 1000‐ and 10000‐fold in LB broth, respectively. 100 µL of diluted cells was mixed with 100 µL of LB broth containing each peptide ranging from 64 to 0.125 µg mL^−1 at 2‐fold serial dilutions.

[2] = test system: Pseudomonas aeruginosa PAO1; assay: microbe, parasite or virus in culture
Procedure: as §1, §2

[3] = test system: Klebsiella pneumoniae ATCC 13883; assay: microbe, parasite or virus in culture; settings: ATCC 13883, 16 h
Procedure: as §1, §2

[4] = test system: Enterococcus faecium 35682; assay: microbe, parasite or virus in culture; settings: Table S11; LB broth, 37 °C, 16 h, n = 2
Procedure: as §1, §2

[5] = test system: Acinetobacter baumannii P53; assay: microbe, parasite or virus in culture; settings: Table S11; LB broth, 37 °C, 16 h, n = 2
Procedure: as §1, §2

[6] = test system: Pseudomonas aeruginosa ATCC 9027; assay: microbe, parasite or virus in culture; settings: ATCC 9027, 16 h
Procedure: as §1, §2

[7] = test system: Klebsiella pneumoniae NCTC 5056; assay: microbe, parasite or virus in culture; settings: NCTC 5056, 16 h
Procedure: as §1, §2

[8] = test system: Klebsiella pneumoniae CRKP HS11286; assay: microbe, parasite or virus in culture; settings: CRKP HS11286, 16 h
Procedure: as §1, §2

[9] = test system: Enterococcus faecalis ATCC 29212; assay: microbe, parasite or virus in culture; settings: ATCC 29212, 16 h
Procedure: as §1, §2

[10] = test system: Staphylococcus aureus ATCC 6538; assay: microbe, parasite or virus in culture; settings: ATCC 6538, 16 h
Procedure: as §1, §2

[11] = test system: Staphylococcus aureus Newman; assay: microbe, parasite or virus in culture; settings: Newman, 16 h
Procedure: as §1, §2

[12] = test system: Salmonella typhimurium LXX; assay: microbe, parasite or virus in culture; settings: murium LXX, 16 h
Procedure: as §1, §2

[13] = test system: Enterococcus faecalis 26; assay: microbe, parasite or virus in culture; settings: 26, 16 h
Procedure: as §1, §2

[14] = test system: Staphylococcus aureus USA300; assay: microbe, parasite or virus in culture; settings: Table S11; LB broth, 37 °C, 16 h, n = 2
Procedure: as §1, §2

[15] = test system: Klebsiella pneumoniae CRKP 5452; assay: microbe, parasite or virus in culture; settings: Table S11; LB broth, 37 °C, 16 h, n = 2
Procedure: as §1, §2

[16] = test system: Enterococcus faecalis 28; assay: microbe, parasite or virus in culture; settings: 28, 16 h
Procedure: as §1, §2

[17] = test system: Streptococcus pyogenes ATCC 19615; assay: microbe, parasite or virus in culture; settings: Table S11; LB broth, 37 °C, 16 h, n = 2
Procedure: as §1, §2

[18] = test system: Acinetobacter baumannii ATCC 19606; assay: microbe, parasite or virus in culture; settings: ATCC 19606, 16 h
Procedure: as §1, §2

[19] = test system: Staphylococcus aureus ATCC 25923; assay: microbe, parasite or virus in culture; settings: ATCC 25923, 16 h
Procedure: as §1, §2

[20] = test system: Streptococcus mutans ATCC 25175; assay: microbe, parasite or virus in culture; settings: ATCC 25175, 16 h
Procedure: as §1, §2

[21] = test system: Acinetobacter baumannii ATCC 17978; assay: microbe, parasite or virus in culture; settings: ATCC 17978, 16 h
Procedure: as §1, §2

[22] = test system: Salmonella enterica ATCC 14028; assay: microbe, parasite or virus in culture; settings: ATCC 14028, 16 h
Procedure: as §1, §2

[23] = test system: Vibrio alginolyticus XSBZ14; assay: microbe, parasite or virus in culture; settings: 16 h
Procedure: as §1, §2

[24] = test system: Candida albicans ATCC 10231; assay: MIC assay (YPD broth); settings: Table S11; YPD broth, 30 °C, 16 h, n = 2
Procedure: as §1
(§3) For fungal strains, overnight cultures were diluted 2000‐fold in YPD broth. 100 µL of diluted cells was mixed with 100 µL of YPD broth containing each peptide ranging from […] 64 to 0.125 µg mL^−1 at 2‐fold serial dilutions.

[25] = test system: Candida albicans ATCC 64550; settings: ATCC 64550, 16 h
Procedure: as §1, §3

[26] = test system: Shigella Castellani LXX; assay: MIC assay (broth micro-dilution); settings: Table S11; LB broth, 37 °C, 16 h, n = 2
Procedure: as §1, §2

[27] = test system: Escherichia coli DH5α; assay: MIC assay (broth micro-dilution); settings: Table S11; LB broth, 37 °C, 16 h, n = 2
Procedure: as §1, §2

SMILES	MIC Acinetobacter baumannii 1104008 [1]	MIC Klebsiella pneumoniae ATCC 13883 [3]	MIC Enterococcus faecium 35682 [4]	MIC Acinetobacter baumannii P53 [5]	MIC Pseudomonas aeruginosa ATCC 9027 [6]	MIC Klebsiella pneumoniae NCTC 5056 [7]	MIC Klebsiella pneumoniae CRKP HS11286 [8]	MIC Enterococcus faecalis ATCC 29212 [9]	MIC Staphylococcus aureus ATCC 6538 [10]	MIC Staphylococcus aureus Newman [11]	MIC Salmonella typhimurium LXX [12]	MIC Enterococcus faecalis 26 [13]	MIC Staphylococcus aureus USA300 [14]	MIC Klebsiella pneumoniae CRKP 5452 [15]	MIC Enterococcus faecalis 28 [16]	MIC Streptococcus pyogenes ATCC 19615 [17]	MIC Acinetobacter baumannii ATCC 19606 [18]	MIC Staphylococcus aureus ATCC 25923 [19]	MIC Streptococcus mutans ATCC 25175 [20]	MIC Acinetobacter baumannii ATCC 17978 [21]	also measured
CCCCCCCCCCCCCC(=O)N[C@@H](Cc1ccccc1)C(=O)N[C@@H](CCCN)C(=O)N[C@H]1CCCNC(=O)CNC(=O)[C@H](CCN)NC(=O)[C@@H](Cc2ccc(O)cc2)NC(=O)[C@H](CC(C)C)NC(=O)[C@H]([C@@H](C)CC)NC(=O)[C@@H](C(C)C)NC1=O [synAQU2-C3] (Myristoyl-F[Orn][Orn][dV]IL[dY][Dab]G; lactam 3-C)	8 µg/mL (≈ 6.5 µM)	> 64 µg/mL	8 µg/mL (≈ 6.5 µM)	8 µg/mL (≈ 6.5 µM)	> 64 µg/mL	32 µg/mL (≈ 26 µM)	> 64 µg/mL	32 µg/mL (≈ 26 µM)	16 µg/mL (≈ 13 µM)	> 64 µg/mL	> 64 µg/mL	8 µg/mL (≈ 6.5 µM)	> 64 µg/mL	> 64 µg/mL	> 64 µg/mL	2 µg/mL (≈ 1.62 µM)	> 64 µg/mL	16 µg/mL (≈ 13 µM)	8 µg/mL (≈ 6.5 µM)	4 µg/mL (≈ 3.25 µM)	MIC Pseudomonas aeruginosa PAO1 ([2]; Table S11, LB broth, 37 °C, 16 h, n = 2): 32 µg/mL (≈ 26 µM); MIC Salmonella enterica ATCC 14028 [22]: > 64 µg/mL; MIC Vibrio alginolyticus XSBZ14 [23]: 16 µg/mL (≈ 13 µM); MIC Candida albicans ATCC 10231 [24]: > 64 µg/mL; MIC Candida albicans ATCC 64550 [25]: > 64 µg/mL; MIC Shigella Castellani LXX [26]: > 64 µg/mL; MIC Escherichia coli DH5α [27]: > 64 µg/mL
CCCCC[C@@H]1CC(=O)N[C@@H](CN)C(=O)N[C@@H](Cc2ccccc2)C(=O)N[C@@H](CCN)C(=O)N[C@@H]([C@@H](C)O)C(=O)N[C@H](Cc2ccccc2)C(=O)N[C@@H](CN)C(=O)N[C@H](CC(C)C)C(=O)N[C@@H](C(C)C)C(=O)N[C@@H](CC(=O)O)C(=O)O1 [synAQU3-cFA] ([Dap]F[Dab]T[dF][Dap][dL]VD; linker N-C via X3)	> 64 µg/mL	> 64 µg/mL	32 µg/mL (≈ 28.1 µM)	> 64 µg/mL	32 µg/mL (≈ 28.1 µM)	> 64 µg/mL	> 64 µg/mL	> 64 µg/mL	> 64 µg/mL	> 64 µg/mL	64 µg/mL (≈ 56.3 µM)	16 µg/mL (≈ 14.1 µM)	> 64 µg/mL	> 64 µg/mL	> 64 µg/mL	8 µg/mL (≈ 7.03 µM)	> 64 µg/mL	> 64 µg/mL	32 µg/mL (≈ 28.1 µM)	64 µg/mL (≈ 56.3 µM)	MIC Pseudomonas aeruginosa PAO1 ([2]; PAO1, 16 h): 64 µg/mL (≈ 56.3 µM); MIC Salmonella enterica ATCC 14028 [22]: > 64 µg/mL; MIC Vibrio alginolyticus XSBZ14 [23]: > 64 µg/mL; MIC Candida albicans ATCC 10231 [24]: 32 µg/mL (≈ 28.1 µM); MIC Candida albicans ATCC 64550 [25]: 32 µg/mL (≈ 28.1 µM); MIC Shigella Castellani LXX [26]: 64 µg/mL (≈ 56.3 µM)

Reference: PMC12677607, “Identification of a Pair of Linear or Cyclic Naturally Inspired Bifunctional Lipopeptide Antibiotics That Overcome Antimicrobial Resistance” (Advanced Science, 2025)
